Measured values from ChEMBL document CHEMBL1759842, “Discovery of non-glucoside SGLT2 inhibitors” (Bioorg Med Chem Lett, 2011).

Key:
[1] = molecular target: T1, Sodium/glucose cotransporter 2 (Homo sapiens, UniProt P31639); assay: Inhibition of human SGLT2 expressed in CHO cells assessed as inhibition of [14C]-alpha-methyl-D-glucopyranoside transport after 60 mins by scintillation counting; assay type: cell-based
T1 sequence (P31639 whole entry): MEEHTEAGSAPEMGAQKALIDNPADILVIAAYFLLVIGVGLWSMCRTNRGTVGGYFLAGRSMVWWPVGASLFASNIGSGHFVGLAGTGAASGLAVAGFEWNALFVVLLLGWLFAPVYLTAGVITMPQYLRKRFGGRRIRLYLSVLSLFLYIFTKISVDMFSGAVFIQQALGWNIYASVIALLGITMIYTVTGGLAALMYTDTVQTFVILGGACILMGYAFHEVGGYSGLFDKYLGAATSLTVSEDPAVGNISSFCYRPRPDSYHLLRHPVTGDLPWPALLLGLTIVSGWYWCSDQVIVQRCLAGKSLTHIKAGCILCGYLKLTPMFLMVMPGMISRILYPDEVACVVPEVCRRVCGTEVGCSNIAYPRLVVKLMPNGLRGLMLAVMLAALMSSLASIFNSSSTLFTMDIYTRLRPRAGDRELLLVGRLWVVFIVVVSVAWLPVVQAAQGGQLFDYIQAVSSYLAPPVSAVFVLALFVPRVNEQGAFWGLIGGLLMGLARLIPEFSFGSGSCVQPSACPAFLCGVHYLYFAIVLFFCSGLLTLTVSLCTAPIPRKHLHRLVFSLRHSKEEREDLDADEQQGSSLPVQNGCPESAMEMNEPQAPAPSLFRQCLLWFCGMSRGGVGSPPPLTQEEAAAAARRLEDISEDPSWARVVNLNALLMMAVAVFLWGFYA

[2] = molecular target: T2, Sodium/glucose cotransporter 1 (Homo sapiens, UniProt P13866); assay: Inhibition of human SGLT1 expressed in CHO cells assessed as inhibition of [14C]-alpha-methyl-D-glucopyranoside transport after 60 mins by scintillation counting; assay type: cell-based
T2 sequence (P13866 whole entry): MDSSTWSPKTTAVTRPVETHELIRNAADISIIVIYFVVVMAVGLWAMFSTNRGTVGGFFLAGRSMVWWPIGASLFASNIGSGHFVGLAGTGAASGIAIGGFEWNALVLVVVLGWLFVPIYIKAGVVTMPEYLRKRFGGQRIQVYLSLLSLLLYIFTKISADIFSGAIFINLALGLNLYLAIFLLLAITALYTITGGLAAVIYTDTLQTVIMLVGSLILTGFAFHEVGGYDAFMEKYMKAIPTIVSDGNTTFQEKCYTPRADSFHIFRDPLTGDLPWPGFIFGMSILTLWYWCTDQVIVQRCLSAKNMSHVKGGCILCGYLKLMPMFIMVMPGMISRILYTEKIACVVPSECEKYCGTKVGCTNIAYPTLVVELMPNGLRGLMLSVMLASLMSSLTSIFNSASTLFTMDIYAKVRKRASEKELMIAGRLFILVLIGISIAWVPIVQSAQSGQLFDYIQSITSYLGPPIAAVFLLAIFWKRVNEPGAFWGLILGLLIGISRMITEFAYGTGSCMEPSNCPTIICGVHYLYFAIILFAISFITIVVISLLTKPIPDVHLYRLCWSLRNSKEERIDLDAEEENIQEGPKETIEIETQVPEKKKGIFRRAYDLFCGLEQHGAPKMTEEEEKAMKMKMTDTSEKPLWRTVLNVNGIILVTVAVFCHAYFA

[3] = Metabolic stability in rat liver microsomes assessed as compound remaining after 30 mins; assay type: ADME, Microsome; conditions: read-out: Stability
[4] = Metabolic stability in human liver microsomes assessed as compound remaining after 30 mins; assay type: ADME, Microsome; conditions: read-out: Stability
[5] = molecular target: T3, Sodium/myo-inositol cotransporter 2 (Homo sapiens, UniProt Q8WWX8); assay: Inhibition of SGLT6 expressed in CHO cells assessed as inhibition of [14C]-alpha-methyl-D-glucopyranoside transport after 60 mins by scintillation counting; assay type: cell-based
T3 sequence (Q8WWX8 whole entry): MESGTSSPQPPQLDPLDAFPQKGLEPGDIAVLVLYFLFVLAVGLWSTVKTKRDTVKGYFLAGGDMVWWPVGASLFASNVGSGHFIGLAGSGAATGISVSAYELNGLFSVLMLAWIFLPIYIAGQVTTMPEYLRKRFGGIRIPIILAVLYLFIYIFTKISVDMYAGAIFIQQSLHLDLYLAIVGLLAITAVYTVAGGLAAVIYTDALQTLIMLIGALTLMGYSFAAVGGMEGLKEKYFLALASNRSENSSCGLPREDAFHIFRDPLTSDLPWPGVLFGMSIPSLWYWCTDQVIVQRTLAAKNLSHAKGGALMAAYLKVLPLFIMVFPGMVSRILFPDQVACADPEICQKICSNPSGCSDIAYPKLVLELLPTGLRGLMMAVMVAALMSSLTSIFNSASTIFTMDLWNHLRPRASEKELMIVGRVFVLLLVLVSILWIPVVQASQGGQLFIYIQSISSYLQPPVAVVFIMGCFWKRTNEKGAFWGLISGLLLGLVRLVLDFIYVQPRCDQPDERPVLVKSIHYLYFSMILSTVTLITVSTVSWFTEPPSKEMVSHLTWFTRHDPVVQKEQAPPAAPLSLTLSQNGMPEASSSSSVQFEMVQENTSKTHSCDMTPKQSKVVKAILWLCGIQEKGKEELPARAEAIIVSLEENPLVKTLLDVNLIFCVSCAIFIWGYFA

[6] = molecular target: T1, Sodium/glucose cotransporter 2; assay: Displacement of [3H]dapagliflozin from human SGLT2 expressed in CHO cells after 60 mins by scintillation counting; assay type: cell-based
[7] = molecular target: T1, Sodium/glucose cotransporter 2; assay: Inhibition of human SGLT2 expressed in CHO cells assessed as inhibition of [14C]-alpha-methyl-D-glucopyranoside transport after 60 mins by scintillation counting in presence of 100% plasma; assay type: cell-based

Structure (SMILES)	IC50 [1] [nM]	IC50 [2] [nM]	further results
CCCn1c(CCc2ccc(Cl)cc2)nnc1CN1C(=O)COc2ccc(Cl)cc21	40	13600	
O=C1CSc2ccc(C(F)(F)F)cc2N1Cc1nnc(SCc2ccc(Cl)cc2)n1C1CC1	1100	3750	
CCn1c(CCc2ccc(Cl)cc2)nnc1CN1C(=O)COc2ccc(C(F)(F)F)cc21	640	46000	
CC(C)Cn1c(CCc2ccc(Cl)cc2)nnc1CN1C(=O)COc2ccc(Cl)cc21	160	6900	
O=C1COc2c(Cl)cc(Cl)cc2N1Cc1nnc(CCc2ccc(Cl)cc2)n1CCC(F)(F)F			remaining at 0.5 h [3]: 4%; remaining at 0.5 h [4]: 4%; IC50 [5]: 9200 nM
CCCn1c(CCc2ccc(Cl)cc2)nnc1CN1C(=O)COc2ccc(C(F)(F)F)cc21	180	9880	
O=C1CSc2ccc(C(F)(F)F)cc2N1Cc1nnc(SCc2ccc(Cl)cc2)n1-c1ccccc1	2110	3470	
O=C1COc2ccc(Cl)cc2N1Cc1nnc(CCc2ccc(Cl)cc2)n1CCC(F)(F)F	70	13800	
CC(C)n1c(CN2C(=O)CSc3ccc(C(F)(F)F)cc32)nnc1SCc1ccc(Cl)cc1	1200	2000	
O=C1COc2ccc(Cl)cc2N1Cc1nnc(CCc2ccc(Cl)cc2)n1CC1CC1	30	7280	
CCCn1c(CCc2ccc(Cl)cc2)nnc1CN1C(=O)COc2c(Cl)cc(Cl)cc21	9	9140	IC50 [6]: 16 nM; remaining at 0.5 h [3]: 4%; remaining at 0.5 h [4]: 4%; IC50 [5]: 14400 nM; IC50 [7]: 40 nM
O=C1COc2ccc(Cl)cc2N1Cc1nnc(CCc2ccc(Cl)cc2)n1C1CC1	1580	25000	
CCOc1ccc(Cc2cc([C@@H]3O[C@H](CO)[C@@H](O)[C@H](O)[C@H]3O)ccc2Cl)cc1 [DAPAGLIFLOZIN]			IC50 [5]: 380 nM
CCCCn1c(CCc2ccc(Cl)cc2)nnc1CN1C(=O)COc2ccc(Cl)cc21	30	11800	

Further lines, with some results ahead:

IC50 [1] [nM]	IC50 [2] [nM]	Structure (SMILES)	further results
250	6640	CCn1c(CN2C(=O)COc3ccc(C(F)(F)F)cc32)nnc1SCc1ccc(Cl)cc1	
370	4750	CCn1c(CN2C(=O)CSc3ccc(C(F)(F)F)cc32)nnc1SCc1ccc(Cl)cc1	
150	7340	CCn1c(CN2C(=O)COc3ccc(Cl)cc32)nnc1SCc1ccc(Cl)cc1	
2100	5610	CCn1c(CN2C(=O)COc3ccc([N+](=O)[O-])cc32)nnc1SCc1ccc(Cl)cc1	
80	7130	CCn1c(CN2C(=O)COc3ccc(C)cc32)nnc1SCc1ccc(Cl)cc1	
90	5320	CCn1c(CN2C(=O)COc3ccc(Br)cc32)nnc1SCc1ccc(Cl)cc1	
430	3290	CCn1c(CN2C(=O)COc3cc(Cl)ccc32)nnc1SCc1ccc(Cl)cc1	
150	7340	CCn1c(CN2C(=O)COc3c(Cl)cccc32)nnc1SCc1ccc(Cl)cc1	
520	2530	CCn1c(CN2C(=O)COc3cc(Br)ccc32)nnc1SCc1ccc(Cl)cc1	
